Data as given in the NIST ThermoML archive (doi:10.1016/j.tca.2018.01.023).
Numbers after ± are expanded uncertainties.

Assay: molar heat capacity at constant pressure
Conditions: 101.33 kPa, Crystal, Small sample (50 mg) DSC

[Ca+2].[O]=[Mo](=[O])([O-])[O-] [calcium molybdate(VI)]
Conditions	molar heat capacity at constant pressure [J/K/mol]
395.5 K	127.3 ± 5.4
396.4 K	127.5 ± 5.4
396.5 K	127.4 ± 5.4
397.4 K	127.6 ± 5.4
397.5 K	127.6 ± 5.4
398.4 K	127.6 ± 5.4
398.5 K	127.7 ± 5.4
399.4 K	127.7 ± 5.4
399.5 K	127.8 ± 5.4
400 K	127.9 ± 5.4
400.4 K	127.8 ± 5.4
400.5 K	127.9 ± 5.4
401.4 K	127.9 ± 5.4
401.5 K	128 ± 5.4
402.4 K	128.1 ± 5.4
402.5 K	128.1 ± 5.4
403.4 K	128.2 ± 5.4
403.5 K	128.2 ± 5.4
404.4 K	128.3 ± 5.4
404.5 K	128.3 ± 5.4
405.4 K	128.5 ± 5.5
405.5 K	128.3 ± 5.4
406.4 K	128.6 ± 5.5
406.5 K	128.4 ± 5.4
407.4 K	128.7 ± 5.5
407.5 K	128.5 ± 5.5
408.4 K	128.7 ± 5.5
408.5 K	128.6 ± 5.5
409.4 K	128.8 ± 5.5
409.5 K	128.7 ± 5.5
410 K	128.9 ± 5.5
410.4 K	128.9 ± 5.5
410.5 K	128.8 ± 5.5
411.4 K	129 ± 5.5
411.5 K	128.9 ± 5.5
412.4 K	129 ± 5.5
412.5 K	129 ± 5.5
413.4 K	129.1 ± 5.5
413.5 K	129.1 ± 5.5
414.4 K	129.2 ± 5.5
414.5 K	129.2 ± 5.5
415.4 K	129.4 ± 5.5
415.5 K	129.3 ± 5.5
416.4 K	129.5 ± 5.5
416.5 K	129.4 ± 5.5
417.4 K	129.6 ± 5.5
417.5 K	129.5 ± 5.5
418.4 K	129.7 ± 5.5
418.5 K	129.6 ± 5.5
419.4 K	129.8 ± 5.5
419.5 K	129.7 ± 5.5
420 K	129.8 ± 5.5
420.4 K	129.9 ± 5.5
420.5 K	129.8 ± 5.5
421.4 K	130 ± 5.5
421.5 K	129.9 ± 5.5
422.4 K	130.1 ± 5.5
422.5 K	130 ± 5.5
423.4 K	130.2 ± 5.5
423.5 K	130.1 ± 5.5
424.4 K	130.3 ± 5.5
424.6 K	130.1 ± 5.5
425.4 K	130.4 ± 5.5
425.6 K	130.2 ± 5.5
426.4 K	130.5 ± 5.5
426.6 K	130.3 ± 5.5
427.4 K	130.6 ± 5.5
427.6 K	130.4 ± 5.5
428.4 K	130.7 ± 5.5
428.6 K	130.5 ± 5.5
429.4 K	130.7 ± 5.5
429.6 K	130.7 ± 5.5
430 K	130.7 ± 5.5
430.4 K	130.8 ± 5.5
430.6 K	130.9 ± 5.6
431.4 K	130.8 ± 5.5
431.6 K	131 ± 5.6
432.4 K	130.8 ± 5.5
432.6 K	131.1 ± 5.6
433.4 K	130.9 ± 5.6
433.6 K	131.2 ± 5.6
434.4 K	130.9 ± 5.6
434.6 K	131.3 ± 5.6
435.4 K	131 ± 5.6
435.6 K	131.3 ± 5.6
436.4 K	131 ± 5.6
436.6 K	131.3 ± 5.6
437.4 K	131.1 ± 5.6
437.6 K	131.4 ± 5.6
438.4 K	131.2 ± 5.6
438.6 K	131.4 ± 5.6
439.4 K	131.3 ± 5.6
439.6 K	131.4 ± 5.6
440 K	131.5 ± 5.6
440.4 K	131.4 ± 5.6
440.6 K	131.5 ± 5.6
441.4 K	131.5 ± 5.6
441.6 K	131.6 ± 5.6
442.4 K	131.6 ± 5.6
442.6 K	131.7 ± 5.6
443.4 K	131.7 ± 5.6
443.6 K	131.9 ± 5.6
444.4 K	131.7 ± 5.6
444.6 K	132 ± 5.6
445.4 K	131.8 ± 5.6
445.6 K	132.2 ± 5.6
446.4 K	132 ± 5.6
446.6 K	132.3 ± 5.6
447.4 K	132.1 ± 5.6
447.6 K	132.4 ± 5.6
448.4 K	132.2 ± 5.6
448.6 K	132.5 ± 5.6
449.4 K	132.3 ± 5.6
449.6 K	132.6 ± 5.6
450 K	132.4 ± 5.6
450.4 K	132.4 ± 5.6
450.6 K	132.6 ± 5.6
451.4 K	132.5 ± 5.6
451.6 K	132.6 ± 5.6
452.4 K	132.5 ± 5.6
452.6 K	132.7 ± 5.6
453.4 K	132.6 ± 5.6
453.6 K	132.7 ± 5.6
454.4 K	132.7 ± 5.6
454.6 K	132.7 ± 5.6
455.4 K	132.7 ± 5.6
455.6 K	132.7 ± 5.6
456.4 K	132.8 ± 5.6
456.6 K	132.7 ± 5.6
457.4 K	132.9 ± 5.6
457.6 K	132.8 ± 5.6
458.4 K	133 ± 5.6
458.7 K	132.9 ± 5.6
459.4 K	133 ± 5.6
459.7 K	133.1 ± 5.6
460 K	133.2 ± 5.7
460.4 K	133.1 ± 5.6
460.7 K	133.2 ± 5.7
461.4 K	133.2 ± 5.7
461.7 K	133.4 ± 5.7
462.4 K	133.3 ± 5.7
462.7 K	133.5 ± 5.7
463.4 K	133.4 ± 5.7
463.7 K	133.6 ± 5.7
464.4 K	133.5 ± 5.7
464.7 K	133.7 ± 5.7
465.4 K	133.6 ± 5.7
465.7 K	133.7 ± 5.7
466.4 K	133.6 ± 5.7
466.7 K	133.8 ± 5.7
467.4 K	133.7 ± 5.7
467.7 K	133.8 ± 5.7
468.4 K	133.8 ± 5.7
468.7 K	133.9 ± 5.7
469.4 K	133.9 ± 5.7
469.7 K	133.9 ± 5.7
470 K	133.9 ± 5.7
470.4 K	134 ± 5.7
470.7 K	133.9 ± 5.7
471.4 K	134 ± 5.7
471.7 K	134 ± 5.7
472.4 K	134 ± 5.7
472.7 K	134.1 ± 5.7
473.4 K	134.1 ± 5.7
473.7 K	134.2 ± 5.7
474.4 K	134.1 ± 5.7
474.7 K	134.3 ± 5.7
475.4 K	134.1 ± 5.7
475.7 K	134.4 ± 5.7
476.4 K	134.2 ± 5.7
476.7 K	134.4 ± 5.7
477.4 K	134.2 ± 5.7
477.7 K	134.4 ± 5.7
478.4 K	134.4 ± 5.7
478.7 K	134.5 ± 5.7
479.4 K	134.5 ± 5.7
479.7 K	134.6 ± 5.7
480 K	134.6 ± 5.7
480.4 K	134.6 ± 5.7
480.7 K	134.7 ± 5.7
481.4 K	134.7 ± 5.7
481.7 K	134.7 ± 5.7
482.4 K	134.8 ± 5.7
482.7 K	134.7 ± 5.7
483.4 K	134.9 ± 5.7
483.7 K	134.8 ± 5.7
484.4 K	135 ± 5.7
484.7 K	134.9 ± 5.7
485.4 K	135.1 ± 5.7
485.7 K	135 ± 5.7
486.4 K	135.2 ± 5.7
486.7 K	135.1 ± 5.7
487.4 K	135.2 ± 5.7
487.7 K	135.1 ± 5.7
488.4 K	135.3 ± 5.7
488.7 K	135.2 ± 5.7
489.4 K	135.4 ± 5.7
489.7 K	135.2 ± 5.7
490 K	135.3 ± 5.7
490.4 K	135.4 ± 5.7
490.7 K	135.3 ± 5.7
491.4 K	135.5 ± 5.7
491.7 K	135.4 ± 5.7
492.4 K	135.5 ± 5.7
492.7 K	135.6 ± 5.8
493.4 K	135.5 ± 5.7
493.8 K	135.7 ± 5.8
494.4 K	135.5 ± 5.7
494.8 K	135.7 ± 5.8
